Data taken from article PMC5271370, “A High-Content Assay Enables the Automated Screening and Identification of Small Molecules with Specific ALDH1A1-Inhibitory Activity” (PLoS ONE, 2017).
pIC50: −log10 of the molar value.

Target: T1, Human ALDH1A3 (Homo sapiens, UniProt P47895)
T1 construct: purchased ThermoFisher 11636H07E50
T1 sequence (P47895 1-512): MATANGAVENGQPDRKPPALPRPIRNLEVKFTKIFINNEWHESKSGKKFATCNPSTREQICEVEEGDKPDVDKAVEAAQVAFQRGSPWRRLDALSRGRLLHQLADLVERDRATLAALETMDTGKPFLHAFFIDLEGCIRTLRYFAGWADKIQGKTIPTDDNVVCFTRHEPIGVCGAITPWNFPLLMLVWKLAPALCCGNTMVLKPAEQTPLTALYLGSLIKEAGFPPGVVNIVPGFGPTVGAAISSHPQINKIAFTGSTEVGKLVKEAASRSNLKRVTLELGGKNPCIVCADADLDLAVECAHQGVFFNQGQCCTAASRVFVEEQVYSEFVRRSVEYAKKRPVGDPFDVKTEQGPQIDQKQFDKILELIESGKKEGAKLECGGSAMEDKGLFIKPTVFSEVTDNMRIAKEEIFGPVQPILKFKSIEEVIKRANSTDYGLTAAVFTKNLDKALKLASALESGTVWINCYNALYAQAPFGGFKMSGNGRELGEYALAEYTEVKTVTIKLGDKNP
Assay: 1,536-well enzymatic assay (NADH fluorescence), ALDH1A3
Format: biochemical
Conditions: not given
From the text: To validate our optimized assay, we assembled a set of 20 previously reported ALDH inhibitors, with varying degrees of target specificity (Table 1 and S4 Fig). […] Briefly, the assay measures the dehydrogenase activity of recombinant human ALDH1A1, ALDH1A2, ALDH1A3, ALDH2 or ALDH3A1 using NAD(P)^+ and either propionaldehyde or benzaldehyde as substrates. An orthogonal resorufin-based assay format was also run with isolated ALDH1A1 to rule out potential false positives due to intrinsic compound fluorescence.
Human ALDH1A1 and ALDH3A1 were expressed and purified as described elsewhere. Human ALDH2 was purchased from Abcam (ab87415). Human ALDH1A2 and ALDH1A3 were purchased from MyBioSource (MBS1005929; San Diego, CA) and ThermoFisher (11636H07E50), respectively. The inhibitory activity of compounds against ALDHs was measured according to protocols described previously. Briefly, 3 μL of enzyme (final concentrations of 20 nM for ALDH1A1, 50 nM for ALDH1A2, 50 nM for ALDH1A3, 75 nM for ALDH2 and 5 nM for ALDH3A1) in assay buffer (100 mM HEPES pH 7.5 with 0.01% Tween 20) were dispensed into a 1,536-well solid-bottom black plate (Greiner Bio One, Monroe, NC). […] Samples were incubated (room temperature, protected from light) for 15 minutes followed by a 1 μL substrate addition of NAD^+ and Propionaldehyde (final concentrations of 1 mM and 80 μM, respectively) for ALDH1A1, 1A2, 1A3, and ALDH2 or NADP^+ and benzaldehyde (final concentrations of 1 mM and 200 μM, respectively) for ALDH3A1. Plates were centrifuged at 1,000 rpm for 15 seconds, then read in kinetic mode on a ViewLux High-throughput CCD imager (PerkinElmer, Waltham, MA) equipped with standard UV fluorescence optics (340 nm excitation, 450 nm emission) for 5 (ALDH1A1, ALDH1A2, ALDH2, ALDH3A1) or 30 (ALDH1A3) minutes. The change in fluorescence intensity over the 5- or 30-minute reaction period was normalized against no-inhibitor and no-enzyme controls and the resulting percent inhibition data were fitted to a 4-parameter Hill equation. Bay-11 7085 was used as intraplate control. To account for artifacts due to intrinsic compound fluorescence in the above spectrum, compounds were also tested in an orthogonal resorufin assay format with optics of excitation 525 nm/emission 598 nm as described before. The same parameters as the NADH assay were used for the resorufin assay, with the addition of (final) 133 μg/mL diaphorase and 37 μM resazurin to the assay solution. Same controls were used in both formats.

Compound | pIC50
O=c1c(-c2ccc(O)cc2)coc2cc(O[C@@H]3O[C@H](CO)[C@@H](O)[C@H](O)[C@H]3O)ccc12 [Daidzin] | 4.62
Cc1cc2c(C(C)C)c(O)c(O)c(C=O)c2c(O)c1-c1c(C)cc2c(C(C)C)c(O)c(O)c(C=O)c2c1O [Gossypol] | 5.07

Same assay, conditions: hits of dual cell-based screen (Table 2); read-out: Biochemical IC50 ALDH1A3

Compound | pIC50
C[S+](=O)([O-])c1ccc(Cn2c3c(c4cc(F)cc(F)c42)CCCC3CC(=O)O)cc1 [L-670596] | 4.45
CC(C)N(C(=O)CCl)c1ccccc1 [Propachlor] | 5.25

Same assay, conditions: validation set; 50 nM enzyme, NAD+ and propionaldehyde; read-out: Biochemical IC50 ALDH1A3

Compound | pIC50
CC(C)=CCCC(C)=CC=O (mixture of isomers) [Citral] | 5.57
COc1ccc(C(=O)CCN(C)C)cc1F [Aldi-2] | 6.62
CC(C)(C)c1ccc(S(=O)(=O)/C=C/C#N)cc1 [Bay-11-7085] | 6.17
Cc1nc2ccccc2n1S(=O)(=O)c1ccc(F)cc1 [CB7] | 4.92
CCOc1ccc(NCC(=O)Nc2ccc(Cl)cc2C)cc1 [CID 725345] | 5.42
COc1cccc2cc(C(=O)CC3(O)C(=O)N(Cc4ccccc4)c4ccccc43)c(=O)oc12 (stereo not shown) [CID 2929292] | 4.62
CCN(CC)c1ccc(C=O)cc1 [DEAB, 4-N,N-diethylaminobenzaldehyde] | 4.62
CCN(CC)C(=S)SSC(=S)N(CC)CC [Disulfiram] | 6.17
Nc1ccccc1C(=O)CC(N)C(=O)O (stereo not shown) [Kynurenine] | 4.57
C#CCN(C)Cc1ccccc1 [Pargyline] | 4.77
O=C1Nc2ccccc2C1=O [indoline-2,3-dione] | 5.12
CVT-10216 | 4.57
